Reference: patent US20080249028A1, “Thyrotropin-Releasing Hormone Analogs and Method of Use” (Roger Williams Hospital, priority 2005, published 2008)
Where a SMILES comes first, the peptide text is derived from it. [ ]: non-standard residue; d: D form. pGlu = O=C1CC[CH](C(=O)O)N1

Tested on: STZ-induced hyperglycemic rats
Assay: Effect on STZ-induced hyperglycemia in rats (blood glucose level)
Type: in vivo, rat
Experimental: Male Sprague-Dawley rats (S.D. 180 g) were used in the experiments described below. The animals lived in individual metabolism cages with free access to food and water, while food and body weight were monitored daily. Peripheral blood samples (approximately 10 μl) were obtained from the tail vein of the animals. The blood glucose levels were measured by using Accu-Check Blood Glucose Meter (Roche Diagnosetics Corporation, IN). Beta cell function was evaluated once every two days over a 2-week period by an individual unaware of the treatment group. Animals were evaluated separately for blood glucose level, food intake and body weight. The endpoint check was pancreatic insulin content and pancreatic beta cell number.
Streptozotocin (STZ) was used to chemically induce damage in pancreatic function in order to create a hyperglycemic state in the animals. Eight-week old male Sprague-Dawley rats (200.00 g±10 g) were injected with STZ by intraperitoneal (i.p.) (65 mg/kg body weight (BW)) to create hyperglycemic animals (24 to 48 hours). Blood glucose levels were monitored daily. Onset of hyperglycemia occurred usually about 24 to 48 hours after STZ administration.
[…] the seventh day or on the third day after STZ administration, which allowed for examination of the TRH/TRH analog treatment and the degree of pancreatic damage in the diabetic animal. Again, food intake, body weight and blood glucose levels of each of the animals were monitored. When hyperglycemia was determined to be reversed by TRH/TRH analog, the animal was sacrificed. Blood samples were collected for insulin assay and the pancreas and muscles were collected for further pathological and physiological tests.
The figures shown in the tables are blood glucose levels (mg/dL; i.e., milligrams of glucose per deciliter of blood).

Work on `NC(=O)C1CCCN1C(=O)C(Cc1c[nH]cn1)NC(=O)C(N)CCC(=O)O` (stereo not drawn) [GluT, 4-Amino-4-[2-(2-carbamoyl-pyrrolidin-1-yl)-1-(1H-imidazol-4-ylmethyl)-2-oxo-ethylcarbamoyl]-butyric acid] yielded a blood glucose level (Tables 2-3, rats, STZ + compound 5 µg/kg, Day 1) of 94 mg/dL, a blood glucose level (Tables 2-3, rats, STZ + compound 5 µg/kg, Day 4) of 98 mg/dL and a blood glucose level (Tables 2-3, rats, STZ + compound 5 µg/kg, Day 7) of 466 mg/dL. For the same molecule, the blood glucose level (Tables 2-3, rats, STZ + compound 5 µg/kg, Day 11) was 457 mg/dL, the blood glucose level (Tables 2-3, rats, STZ + compound 5 µg/kg, Day 15) was 186 mg/dL and the blood glucose level (Tables 2-3, rats, STZ + compound 5 µg/kg, Day 18) was 215 mg/dL. For the same molecule, the blood glucose level (Tables 2-3, rats, STZ + compound 5 µg/kg, Day 21) was 213 mg/dL, the blood glucose level (Tables 2-3, rats, STZ + compound 5 µg/kg, Day 25) was 173 mg/dL and the blood glucose level (Tables 2-3, rats, STZ + compound 5 µg/kg, Day 28) was 369 mg/dL. The blood glucose level (Tables 2-3, rats, STZ + compound 5 µg/kg, Day 32) was 342 mg/dL, the blood glucose level (Tables 2-3, rats, STZ + compound 5 µg/kg, Day 35) was 336 mg/dL and the blood glucose level (Tables 2-3, rats, STZ + compound 5 µg/kg, Day 39) was 376 mg/dL. It also gave a blood glucose level (Tables 2-3, rats, STZ + compound 5 µg/kg, Day 42) of 390 mg/dL, a blood glucose level (Tables 2-3, rats, STZ + compound 5 µg/kg, Day 46) of 317 mg/dL and a blood glucose level (Tables 2-3, rats, STZ + compound 5 µg/kg, Day 54) of 260 mg/dL. It also gave a blood glucose level (Tables 2-3, rats, STZ + compound 5 µg/kg, Day 61) of 324 mg/dL, a blood glucose level (Tables 2-3, rats, STZ + compound 10 µg/kg, Day 1) of 103 mg/dL and a blood glucose level (Tables 2-3, rats, STZ + compound 10 µg/kg, Day 4) of 99 mg/dL. It also gave a blood glucose level (Tables 2-3, rats, STZ + compound 10 µg/kg, Day 7) of 415 mg/dL, a blood glucose level (Tables 2-3, rats, STZ + compound 10 µg/kg, Day 11) of 477 mg/dL and a blood glucose level (Tables 2-3, rats, STZ + compound 10 µg/kg, Day 15) of 117 mg/dL. The blood glucose level (Tables 2-3, rats, STZ + compound 10 µg/kg, Day 18) was 125 mg/dL, the blood glucose level (Tables 2-3, rats, STZ + compound 10 µg/kg, Day 21) was 103 mg/dL and the blood glucose level (Tables 2-3, rats, STZ + compound 10 µg/kg, Day 25) was 102 mg/dL. The blood glucose level (Tables 2-3, rats, STZ + compound 10 µg/kg, Day 28) was 429 mg/dL, the blood glucose level (Tables 2-3, rats, STZ + compound 10 µg/kg, Day 32) was 111 mg/dL and the blood glucose level (Tables 2-3, rats, STZ + compound 10 µg/kg, Day 35) was 128 mg/dL. The blood glucose level (Tables 2-3, rats, STZ + compound 10 µg/kg, Day 39) was 252 mg/dL, the blood glucose level (Tables 2-3, rats, STZ + compound 10 µg/kg, Day 42) was 224 mg/dL and the blood glucose level (Tables 2-3, rats, STZ + compound 10 µg/kg, Day 46) was 289 mg/dL. It also gave a blood glucose level (Tables 2-3, rats, STZ + compound 10 µg/kg, Day 54) of 255 mg/dL, a blood glucose level (Tables 2-3, rats, STZ + compound 10 µg/kg, Day 61) of 218 mg/dL and a blood glucose level (Tables 2-3, rats, STZ + compound 20 µg/kg, Day 1) of 103 mg/dL. For the same molecule, the blood glucose level (Tables 2-3, rats, STZ + compound 20 µg/kg, Day 4) was 98 mg/dL, the blood glucose level (Tables 2-3, rats, STZ + compound 20 µg/kg, Day 7) was 461 mg/dL and the blood glucose level (Tables 2-3, rats, STZ + compound 20 µg/kg, Day 11) was 502 mg/dL. It also gave a blood glucose level (Tables 2-3, rats, STZ + compound 20 µg/kg, Day 15) of 266 mg/dL, a blood glucose level (Tables 2-3, rats, STZ + compound 20 µg/kg, Day 18) of 263 mg/dL and a blood glucose level (Tables 2-3, rats, STZ + compound 20 µg/kg, Day 21) of 382 mg/dL. The blood glucose level (Tables 2-3, rats, STZ + compound 20 µg/kg, Day 25) was 345 mg/dL, the blood glucose level (Tables 2-3, rats, STZ + compound 20 µg/kg, Day 28) was 496 mg/dL and the blood glucose level (Tables 2-3, rats, STZ + compound 20 µg/kg, Day 32) was 468 mg/dL. For the same molecule, the blood glucose level (Tables 2-3, rats, STZ + compound 20 µg/kg, Day 35) was 485 mg/dL, the blood glucose level (Tables 2-3, rats, STZ + compound 20 µg/kg, Day 39) was 477 mg/dL and the blood glucose level (Tables 2-3, rats, STZ + compound 20 µg/kg, Day 42) was 457 mg/dL. For the same molecule, the blood glucose level (Tables 2-3, rats, STZ + compound 20 µg/kg, Day 46) was 487 mg/dL, the blood glucose level (Tables 2-3, rats, STZ + compound 20 µg/kg, Day 54) was 389 mg/dL and the blood glucose level (Tables 2-3, rats, STZ + compound 20 µg/kg, Day 61) was 452 mg/dL. For the same molecule, the blood glucose level (Tables 2-3, rats, STZ + compound 40 µg/kg, Day 1) was 105 mg/dL, the blood glucose level (Tables 2-3, rats, STZ + compound 40 µg/kg, Day 4) was 99 mg/dL and the blood glucose level (Tables 2-3, rats, STZ + compound 40 µg/kg, Day 7) was 548 mg/dL. The blood glucose level (Tables 2-3, rats, STZ + compound 40 µg/kg, Day 11) was 568 mg/dL, the blood glucose level (Tables 2-3, rats, STZ + compound 40 µg/kg, Day 15) was 327 mg/dL and the blood glucose level (Tables 2-3, rats, STZ + compound 40 µg/kg, Day 18) was 405 mg/dL. The blood glucose level (Tables 2-3, rats, STZ + compound 40 µg/kg, Day 21) was 472 mg/dL, the blood glucose level (Tables 2-3, rats, STZ + compound 40 µg/kg, Day 25) was 455 mg/dL and the blood glucose level (Tables 2-3, rats, STZ + compound 40 µg/kg, Day 28) was 514 mg/dL. For the same molecule, the blood glucose level (Tables 2-3, rats, STZ + compound 40 µg/kg, Day 32) was 543 mg/dL, the blood glucose level (Tables 2-3, rats, STZ + compound 40 µg/kg, Day 35) was 507 mg/dL and the blood glucose level (Tables 2-3, rats, STZ + compound 40 µg/kg, Day 39) was 589 mg/dL. The blood glucose level (Tables 2-3, rats, STZ + compound 40 µg/kg, Day 42) was 592 mg/dL, the blood glucose level (Tables 2-3, rats, STZ + compound 40 µg/kg, Day 46) was 609 mg/dL and the blood glucose level (Tables 2-3, rats, STZ + compound 40 µg/kg, Day 54) was 531 mg/dL. It also gave a blood glucose level (Tables 2-3, rats, STZ + compound 40 µg/kg, Day 61) of 413 mg/dL.
`NC(=O)CNC(=O)C1CCCN1C(=O)C(Cc1c[nH]cn1)NC(=O)C1CCC(=O)N1` (stereo not drawn) [Glp, Glp-His-Pro-Gly-NH2] ([pGlu]HPG-NH2; configuration not given here) was tested, and the blood glucose level (Table 1, rats, STZ + compound i.p., Day 1) was 103.8 mg/dL, the blood glucose level (Table 1, rats, STZ + compound i.p., Day 2) was 396 mg/dL and the blood glucose level (Table 1, rats, STZ + compound i.p., Day 4) was 446 mg/dL. It also gave a blood glucose level (Table 1, rats, STZ + compound i.p., Day 9) of 275 mg/dL, a blood glucose level (Table 1, rats, STZ + compound i.p., Day 15) of 348 mg/dL and a blood glucose level (Table 1, rats, STZ + compound i.p., Day 22) of 419 mg/dL. It also gave a blood glucose level (Table 1, rats, STZ + compound i.p., Day 29) of 431 mg/dL, a blood glucose level (Table 1, rats, STZ + compound i.p., Day 39) of 448 mg/dL and a blood glucose level (Table 1, rats, STZ + compound i.p., Day 43) of 423 mg/dL. The blood glucose level (Table 1, rats, STZ + compound i.p., Day 50) was 416 mg/dL, the blood glucose level (Table 1, rats, STZ + compound i.p., Day 53) was 432 mg/dL and the blood glucose level (Table 1, rats, STZ + compound i.p., Day 56) was 400 mg/dL. It also gave a blood glucose level (Table 1, rats, STZ + compound i.p., Day 60) of 468 mg/dL and a blood glucose level (Table 1, rats, STZ + compound i.p., Day 64) of 421 mg/dL.
